# No end group written: not given here.
# Molecular target: T1, hB2 receptor (Homo sapiens, UniProt P30411)
# T1 construct: host or cells: CHO-K1
# T1 sequence (P30411 1-391): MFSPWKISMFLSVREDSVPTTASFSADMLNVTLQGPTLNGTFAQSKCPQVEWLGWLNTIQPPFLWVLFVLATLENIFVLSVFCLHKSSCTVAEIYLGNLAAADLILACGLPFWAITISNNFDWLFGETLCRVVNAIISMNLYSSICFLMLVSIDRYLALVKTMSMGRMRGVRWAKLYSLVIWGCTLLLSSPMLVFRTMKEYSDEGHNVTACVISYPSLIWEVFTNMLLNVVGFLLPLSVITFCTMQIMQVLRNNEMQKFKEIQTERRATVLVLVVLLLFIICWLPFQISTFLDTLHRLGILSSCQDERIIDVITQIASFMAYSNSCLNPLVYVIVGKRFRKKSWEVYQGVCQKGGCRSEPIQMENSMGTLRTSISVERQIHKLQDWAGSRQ
# Assay: In vitro Assay of hB2 Receptor Function using Calcium Flux
# Format: cell-based
# Details: recombinant CHO cells, antagonist IC50 against agonist at EC80
# Method: In vitro Assay of hB2 Receptor Function using Calcium Flux The intracellular calcium flux induced by hB2 receptor activation was analyzed using an hB2 recombinant cell line (CHO-K1) purchased from PerkinElmer (Catalog Number: RBHB2C000EA) on a fluorometric imaging plate reader (FLIPR). […] Culture medium was changed every other day. 24 h prior to the FLIPR assay, the hB2/CHO cells were washed once with PBS (Invitrogen) and 10 mL of Versene (1:5000, Invitrogen, Cat# 15040-066) was added to each flask. After 5 min incubation at 37° C., Versene was removed and cells were detached from the flask and resuspended in culture medium. Cells were counted and 25,000 cells/well were plated in 96-well black-sided clear bottom assay plates (Costar #3904). Cells were incubated in a 37° C. CO2 incubator overnight. The media was aspirated from the cells and replaced with 65 μL of dye-loading buffer. The loading buffer was prepared by diluting a stock solution of 0.5 mM Fluo-4 AM (Molecular Probes, dissolved in DMSO containing 10% [w/v] pluronic acid) to a concentration of 1 μM in Clear Dulbecco's Modified Eagle Medium (DMEM) containing 0.1% BSA, 20 mM HEPES, and 2.5 mM probenecid. The cells were dye-loaded for 1 h at RT. The excess dye was removed by washing the cells 2× with assay buffer. The assay buffer consists of Hank's Balanced Salt Solution (HBSS) containing 20 mM HEPES, 0.1% BSA, and 2.5 mM probenecid. After the wash cycles, a volume of 100 μL was left in each well, and the plate was ready to be assayed in the FLIPR System. […] The cell plate and the compound plates were loaded onto the FLIPR and during the assay, fluorescence readings are taken simultaneously from all 96 wells of the cell plate. Ten 1-second readings were taken to establish a stable baseline for each well, then 25 μL from the B1 antagonist plate was rapidly (50 μL/sec.) added. The fluorescence signal was measured in 1-second (1 min) followed by 6-second (2 min) intervals for a total of 3 min to determine if there is any agonist activity with the compounds.
row,Molecule,IC50 [nM]
1,"Cc1ccc(S(=O)(=O)N2C=CNC(=O)[C@H]2CC(=O)NC2CCCCC2C2CCCCC2)cc1 (stereo partly drawn) [T-1-40, N-1,1′-bi(cyclohexyl)-2-yl-2-((2R)-1-((4-methylphenyl)sulfonyl)-3-oxo-1,2,3,4-tetrahydro-2-pyrazinyl)acetamide]",200
2,"Cc1ccc(S(=O)(=O)N2C=CNC(=O)[C@H]2CC(=O)NC2CCC(N3CCCC(F)C3)CC2(C)C)cc1 (stereo partly drawn) [T-1-41, N-(4-(3-fluoro-1-piperidinyl)-2,2-dimethylcyclohexyl)-2-((2R)-1-((4-methyl-phenyl)sulfonyl)-3-oxo-1,2,3,4-tetrahydro-2-pyrazinyl)acetamide]",2
3,"Cc1ccc(S(=O)(=O)N2C=CNC(=O)[C@H]2CC(=O)NC2CCN(CCc3ccccc3)CC2)cc1 [T-1-58, N-(1-(2-phenethyl)-4-piperidinyl)-2-((2R)-1-((4-methylphenyl)sulfonyl)-3-oxo-1,2,3,4-tetrahydro-2-pyrazinyl)acetamide]",20
4,"Cc1ccc(S(=O)(=O)N2C=CNC(=O)[C@H]2CC(=O)N(C)C2CCN(C)CC2)cc1 [T-2-1, 2-((2R)-1-((4-methylphenyl)sulfonyl)-3-oxo-1,2,3,4-tetrahydro-2-pyrazinyl)-N-methyl-N-(1-methyl-4-piperidinyl)acetamide]",3
5,"Cc1ccc(S(=O)(=O)N2C=CNC(=O)[C@H]2CC(=O)N2C[C@@H](N)[C@H](c3ccccc3)C2)cc1 [T-3-10, (3R)-3-(2-((3S)-3-(amino)-4(R)-4-phenyl-1-pyrrolidinyl)-2-oxoethyl)-4-((4-methylphenyl)sulfonyl)-3,4-dihydro-2(1H)-pyrazinone]",270
6,"Cc1cc(S(=O)(=O)N2C=CNC(=O)[C@H]2CC(=O)N2CCC(CO)CC2)c(C)cc1Cl [T-3-15, (3R)-4-((4-chloro-2,5-dimethylphenyl)sulfonyl)-3-(2-(4-(hydroxymethyl)-1-piperidinyl)-2-oxoethyl)-3,4-dihydro-2(1H)-pyrazinone]",940
7,"Cc1cc(S(=O)(=O)N2C=CNC(=O)[C@H]2CC(=O)N2CCC3(CCNC3)C2)c(C)cc1Cl (stereo partly drawn) [T-3-26, (3R)-4-((4-chloro-2,5-dimethylphenyl)sulfonyl)-3-(2-(2,7-diazaspiro[4.4]non-2-yl)-2-oxoethyl)-3,4-dihydro-2(1H)-pyrazinone]",15
8,"Cc1ccc(S(=O)(=O)N2C=CNC(=O)[C@H]2CC(=O)N2CCC(NC(=O)c3ccccc3)CC2)cc1 [T-3-40, N-(1-(2-((2R)-1-((4-methylphenyl)sulfonyl)-3-oxo-1,2,3,4-tetrahydro-2-pyrazinyl)acetyl)-4-piperidinyl)benzamide]",> 4000
9,"Cc1ccc(S(=O)(=O)N2C=CNC(=O)[C@H]2CC(=O)N2CCCC2c2ccccc2)cc1 (stereo partly drawn) [T-3-43, (3R)-4-((4-methylphenyl)sulfonyl)-3-(2-oxo-2-(2RS-phenyl-1-pyrrolidinyl)ethyl)-3,4-dihydro-2(1H)-pyrazinone]",2600
10,"COc1ccc(CC2CCCN2C(=O)C[C@@H]2C(=O)NC=CN2S(=O)(=O)c2ccc(C)cc2)cc1 (stereo partly drawn) [T-3-47, (3R)-3-(2-(2-RS-((4-(methyloxy)phenyl)methyl)-1-pyrrolidinyl)-2-oxoethyl)-4-((4-methylphenyl)sulfonyl)-3,4-dihydro-2(1H)-pyrazinone]",390
11,"Cc1ccc(C2CCN(C(=O)C[C@@H]3C(=O)NC=CN3S(=O)(=O)c3ccc(C)cc3)CC2)cc1 [T-3-48, (3R)-3-(2-(4-(4-methylphenyl)-1-piperidinyl)-2-oxoethyl)-4-((4-methylphenyl)-sulfonyl)-3,4-dihydro-2(1H)-pyrazinone]",1600
12,"N-((4S)-1-cyclopropyl-3,3-dimethyl-4-piperidinyl)-2-((2R)-1-((4-methylphenyl)-sulfonyl)-3-oxo-1,2,3,4-tetrahydro-2-pyrazinyl)acetamide; and N-((4R)-1-cyclopropyl-3,3-dimethyl-4-piperidinyl)-2-((2R)-1-((4-methylphenyl)-sulfonyl)-3-oxo-1,2,3,4-tetrahydro-2-pyrazinyl)acetamide [T-1-45]",1

# More lines, now with the values ahead:
row,IC50 [nM],Molecule
1,20,"Cc1ccc(S(=O)(=O)N2C=CNC(=O)[C@H]2CC(=O)NC2CC(C)(C)N(C)C(C)(C)C2)cc1 [T-1-77, 2-((2R)-1-((4-methylphenyl)sulfonyl)-3-oxo-1,2,3,4-tetrahydro-2-pyrazinyl)-N-(1,2,2,6,6-pentamethyl-4-piperidinyl)acetamide]"
2,1,"COCCN1CC[C@@H](NC(=O)C[C@@H]2C(=O)NC=CN2S(=O)(=O)c2ccc(C)cc2)C(C)(C)C1 [T-1-120, N-((4R)-3,3-dimethyl-1-(2-(methyloxy)ethyl)-4-piperidinyl)-2-((2R)-1-((4-methylphenyl)sulfonyl)-3-oxo-1,2,3,4-tetrahydro-2-pyrazinyl)acetamide]"
3,130,"COc1ccc(C2CN(C(=O)C[C@@H]3C(=O)NC=CN3S(=O)(=O)c3ccc(C)cc3)CCS2)cc1 (stereo partly drawn) [T-3-2, (3R)-3-(2-(2-(4-(methyloxy)phenyl)-4-thiomorpholinyl)-2-oxoethyl)-4-((4-methyl-phenyl)sulfonyl)-3,4-dihydro-2(1H)-pyrazinone]"
4,1000,"Cc1ccc(S(=O)(=O)N2C=CNC(=O)[C@H]2CC(=O)N2CCCC2c2ccc(Cl)cc2)cc1 (stereo partly drawn) [T-3-3, (3R)-3-(2-(2-(4-chlorophenyl)-1-pyrrolidinyl)-2-oxoethyl)-4-((4-methylphenyl)-sulfonyl)-3,4-dihydro-2(1H)-pyrazinone]"
5,270,"Cc1cc(S(=O)(=O)N2C=CNC(=O)[C@H]2CC(=O)N2CCC(N3CCCCC3)CC2)c(C)cc1Cl [T-3-8, (3R)-3-(2-(1,4′-bipiperidin-1′-yl)-2-oxoethyl)-4-((4-chloro-2,5-dimethylphenyl)-sulfonyl)-3,4-dihydro-2(1H)-pyrazinone]"
6,160,"Cc1cc(S(=O)(=O)N2C=CNC(=O)[C@H]2CC(=O)N2CCC(CN3CCCC3)CC2)c(C)cc1Cl [T-3-18, (3R)-4-((4-chloro-2,5-dimethylphenyl)sulfonyl)-3-(2-oxo-2-(4-(1-pyrrolidinylmethyl)-1-piperidinyl)ethyl)-3,4-dihydro-2(1H)-pyrazinone]"
7,5.1,"Cc1cc(S(=O)(=O)N2C=CNC(=O)[C@H]2CC(=O)N2CCC3(CCN(C4CC4)C3)C2)c(C)cc1Cl (stereo partly drawn) [T-3-38, (3R)-4-((4-chloro-2,5-dimethylphenyl)sulfonyl)-3-(2-(7-cyclopropyl-2,7-diazaspiro[4.4]non-2-yl)-2-oxoethyl)-3,4-dihydro-2(1H)-pyrazinone]"
8,> 4000,"Cc1ccc(S(=O)(=O)N2C=CNC(=O)[C@H]2CC(=O)N2CCCC2c2cc3ccccc3[nH]2)cc1 (stereo partly drawn) [T-3-50, (3R)-3-(2-(2-RS-(1H-indol-2-yl)-1-pyrrolidinyl)-2-oxoethyl)-4-((4-methylphenyl)sulfonyl)-3,4-dihydro-2(1H)-pyrazinone]"
9,19,"N-((1R)-2,2-dimethyl-4-oxocyclohexyl)-2-((2R)-1-((4-methylphenyl)sulfonyl)-3-oxo-1,2,3,4-tetrahydro-2-pyrazinyl)acetamide; and N-((1S)-2,2-dimethyl-4-oxocyclohexyl)-2-((2R)-1-((4-methylphenyl)sulfonyl)-3-oxo-1,2,3,4-tetrahydro-2-pyrazinyl)acetamide [T-1-37]"
10,530,"N-((3R)-1-(1-methylethyl)-3-piperidinyl)-2-((2R)-1-((4-methylphenyl)sulfonyl)-3-oxo-1,2,3,4-tetrahydro-2-pyrazinyl)acetamide; and N-((3S)-1-(1-methylethyl)-3-piperidinyl)-2-((2R)-1-((4-methylphenyl)sulfonyl)-3-oxo-1,2,3,4-tetrahydro-2-pyrazinyl)acetamide [T-1-11]"

# System: not given
# Assay: not given
# Details: cited from earlier work
row,Molecule,half-life of BK in plasma
1,"RPPGFSPFR [BK, Bradykinin]",approximately 17 seconds

# From patent publication US20090227601A1, “Bradykinin 1 Receptor Antagonists” (Amgen Inc., priority 2005, published 2009)
